Source: patent publication US4954507A, “1-tertiary-alkyl-substituted naphthyridine carboxylic acid antibacterial agents” (priority 1988, dated 1990)
Converted amounts (≈) assume the structure as drawn. Where two headings read alike, the source gives them in different places.

Tests used:
[1] = test system: Streptococcus faecium; assay: MIC, microtitration dilution method, S. faeci.; assay type: cell-based
Experimental: (§1) The compounds of this invention display antibacterial activity when tested by the microtitration dilution method reported by Heifetz et al., Antimicr. Agents & Chemoth., 6. 124 (1974). Minimum inhibitory concentrations (MICs, in μg/ml) for but a few representative compounds according to this invention were determined by the above-mentioned method.

[2] = test system: Escherichia coli; assay: MIC, microtitration dilution method, E. coli; assay type: cell-based
Experimental: as §1

[3] = test system: Staphylococcus aureus; assay: MIC, microtitration dilution method, S. aur.; assay type: cell-based
Experimental: as §1

[4] = test system: Streptococcus faecalis; assay: MIC, microtitration dilution method, S. faecal.; assay type: cell-based
Experimental: as §1

[5] = test system: Klebsiella pneumoniae; assay: MIC, K. pneum.; assay type: cell-based
Experimental: as §1

[6] = test system: Pseudomonas aeruginosa; assay: MIC, microtitration dilution method, P. aer.; assay type: cell-based
Experimental: as §1

[7] = test system: Enterobacter cloacae; assay: MIC, microtitration dilution method, E. clo.; assay type: cell-based
[8] = test system: Klebsiella oxytoca; assay: MIC, microtitration dilution method, K. oxyto.; assay type: cell-based; conditions: Table 2
Experimental: as §1

[9] = physchem; conditions: water
[10] = in words; from Tables 2, 3 and 4
[11] = Enterococcus faecium, Table 3, S. faeci., read-out: MIC
[12] = Escherichia coli, Table 3, E. coli, read-out: MIC
[13] = Staphylococcus aureus, Table 3, S. aur., read-out: MIC
[14] = Enterococcus faecalis, Table 3, S. faecal., read-out: MIC
[15] = Table 3, K. pneum., read-out: MIC
[16] = Pseudomonas aeruginosa, Table 3, P. aer., read-out: MIC
[17] = Enterobacter cloacae, Table 3, E. clo., read-out: MIC

Row | Structure (SMILES) | MIC ([1]; Enterococcus faecium) [µg/mL] | MIC ([2]; Escherichia coli) [µg/mL] | MIC ([3]; Staphylococcus aureus) [µg/mL] | MIC ([4]; Enterococcus faecalis) [µg/mL] | MIC [5] [µg/mL] | MIC ([6]; Pseudomonas aeruginosa) [µg/mL] | MIC ([7]; Enterobacter cloacae) [µg/mL] | MIC [2, 12] [µg/mL] | further results
1 | CS(=O)(=O)O.C[C@@H]1CN(c2nc3c(cc2F)c(=O)c(C(=O)O)cn3C(C)(C)C)C[C@H]1N (relative stereo) [Example 48, 7-(trans-3-amino-4-methylpyrrolidin-1-yl)-1-(1,1-dimethylethyl)-1,4-dihydro-6-fluoro-4-oxo-1,8-naphthyridine-3-carboxylic acid (methanesulfonate)] | 0.5 | 0.015 | 0.008 | 0.06 | 0.06 | 0.25 | 0.015 | – | –
2 | CC1CN(c2nc3c(cc2F)c(=O)c(C(=O)O)cn3C(C)(C)C)CC1N (mixture of isomers) [Example 42] | 1 | 0.008 | 0.03 | 0.25 | 0.06 | 0.25 | 0.015 | – | –
3 | CC(C)(C)n1cc(C(=O)O)c(=O)c2cc(F)c(N3C[C@@H]4CC[C@H]3CN4)nc21 [Example 23, 7-(1S,4S-2,5-DIAZABICYCLO[2.2.2]OCTAN-2-YL)-1-(1,1-DIMETHYLETHYL)-1,4-DIHYDRO-6-FLUORO-4-OXO-1,8-NAPHTHYRIDINE-3-CARBOXYLIC ACID] | – | – | – | – | – | – | – | – | MIC [8]: 500 µg/mL (≈ 1340 µM); MIC ([1]; Table 2, S. faeci.): 2000 µg/mL (≈ 5340 µM); MIC ([2]; Table 2, E. coli): 130 µg/mL (≈ 347 µM); MIC ([3]; Table 2, S. aur.): 30 µg/mL (≈ 80.1 µM); MIC ([4]; Table 2, S. faecal.): 500 µg/mL (≈ 1340 µM); MIC ([6]; Table 2, P. aer.): 1000 µg/mL (≈ 2670 µM); MIC ([7]; Table 2, E. clo.): 60 µg/mL (≈ 160 µM)
4 | CC(C)(C)n1cc(C(=O)O)c(=O)c2cc(F)c(N3C[C@H]4C[C@@H]3CN4)nc21 [Example 30] | – | – | – | – | – | – | – | 0.06 (≈ 0.166 µM) | MIC [1, 11]: 2 µg/mL (≈ 5.55 µM); MIC [3, 13]: 0.06 µg/mL (≈ 0.166 µM); MIC [4, 14]: 0.25 µg/mL (≈ 0.694 µM); MIC [5, 15]: 0.06 µg/mL (≈ 0.166 µM); solubility [9]: 80 µg/mL (≈ 222 µM); MIC [6, 16]: 0.13 µg/mL (≈ 0.361 µM); MIC [7, 17]: 0.03 µg/mL (≈ 0.0832 µM); combination of anti-bacterial, toxicity, and water-solubility properties [10]: highly advantageous combination of the above mentioned properties
5 | CC(C)(C)n1cc(C(=O)O)c(=O)c2cc(F)c(N3CC[C@@H](N)C3)nc21 [Example 45, 7-[(R)-3-AMINO-PYRROLIDINYL]-1-(1,1-DIMETHYLETHYL)-1,4-DIHYDRO-6-FLUORO-4-OXO-1,8-NAPHTHYRIDINE-3-CARBOXYLIC ACID, METHANESULFONATE] | 1 | 0.06 | 0.15 | 0.13 | 0.13 | 0.25 | 0.06 | – | –
6 | CC(C)(C)n1cc(C(=O)O)c(=O)c2cc(F)c(N3CC[C@H](N)C3)nc21 [Example 46, 7-[(S)-3-amino-1-pyrrolidinyl]-1-(1,1-dimethylethyl)-6-fluoro-1,4-dihydro-4-oxo-1,8-naphthyridine-3-carboxylic acid] | 0.25 (≈ 0.718 µM) | 0.015 (≈ 0.0431 µM) | 0.008 (≈ 0.023 µM) | 0.03 (≈ 0.0861 µM) | 0.03 (≈ 0.0861 µM) | 0.06 (≈ 0.172 µM) | 0.008 (≈ 0.023 µM) | – | –
7 | CC(C)(C)n1cc(C(=O)O)c(=O)c2cc(F)c(N3CCC(N)C3)nc21 (stereo not shown) [Example 36, 7-(3-AMINO-1-PYRROLIDINYL)-1-(1,1-DIMETHYLETHYL)-1,4-DIHYDRO-6-FLUORO-4-OXO-1,8-NAPHTHYRIDINE-3-CARBOXYLIC ACID] | 1 (≈ 2.87 µM) | 0.13 (≈ 0.373 µM) | 0.015 (≈ 0.0431 µM) | 0.25 (≈ 0.718 µM) | 0.13 (≈ 0.373 µM) | 0.25 (≈ 0.718 µM) | 0.06 (≈ 0.172 µM) | – | –
8 | CCn1cc(C(=O)O)c(=O)c2cc(F)c(N3CCNCC3)cc21 [Nor., 1-ethyl-6-fluoro-1,4-dihydro-7-(1-piperazinyl)-4-oxo-quinoline-3-carboxylic acid, reference compound] | – | – | – | – | – | – | – | 0.06 (≈ 0.188 µM) | MIC [1, 11]: 8 µg/mL (≈ 25.1 µM); MIC [3, 13]: 0.25 µg/mL (≈ 0.783 µM); MIC [4, 14]: 2 µg/mL (≈ 6.26 µM); MIC [5, 15]: 0.03 µg/mL (≈ 0.0939 µM); MIC [6, 16]: 0.5 µg/mL (≈ 1.57 µM); MIC [7, 17]: 0.06 µg/mL (≈ 0.188 µM)
9 | C[C@H]1CN(c2nc3c(cc2F)c(=O)c(C(=O)O)cn3C(C)(C)C)C[C@H]1N (relative stereo) [Example 47, 7-(cis-3-amino-4-methyl-pyrrolidin-1-yl)-1-(1,1-dimethylethyl)-1,4-dihydro-6-fluoro-4-oxo-1,8-naphthyridine-3-carboxylic acid] | 1 (≈ 2.76 µM) | 0.25 (≈ 0.69 µM) | 0.015 (≈ 0.0414 µM) | 0.13 (≈ 0.359 µM) | 0.03 (≈ 0.0828 µM) | 0.5 (≈ 1.38 µM) | 0.13 (≈ 0.359 µM) | – | –
10 | O=C(O)c1cn(C2CC2)c2cc(N3CCNCC3)c(F)cc2c1=O [Cip., 1-cyclopropyl-6-fluoro-1,4-dihydro-7-(1-piperazinyl)-4-oxo-quinoline-3-carboxylic acid, reference compound] | 8 (≈ 24.1 µM) | – | 0.13 (≈ 0.392 µM) | – | 0.03 (≈ 0.0905 µM) | 0.13 (≈ 0.392 µM) | – | 0.015 (≈ 0.0453 µM) | –
